# According to patent US20160310481A1, “LAQUINIMOD FOR TREATMENT OF CANNABINOID RECEPTOR TYPE 1(CB1) MEDIATED DISORDERS” (Teva Pharmaceutical Industries, Ltd., priority 2012, published 2016):
# Read-outs that look alike come from different tables or passages of the source.
# Columns and labels:
# [1] = system: glutamatergic transmission in control striatal neurons; test: Bath application on corticostriatal slices of wild type mice: sEPSCs (basal glutamatergic transmission); type: cell-based
# EAE mice = test: EAE induction and disease evaluation, preventive daily s.c. LQ treatment; type: in vivo, C57BL/6 mice; settings: preventive treatment 0-26 dpi, daily s.c. 1-25 mg/kg
# Protocol: Female C57BL/6 mice at 6-8 weeks of age were purchased from Charles River (Calco, Milan, Italy) and housed in pathogen-free conditions. All procedures involving animals were performed according to the guidelines of the San Raffaele Scientific Institute Institutional Animal Care and Use Committee.
# EAE was induced by immunization with 3 subcutaneous injection of 100 μl each, containing a total of 200 μg of myelin oligodendrocyte glycoprotein (MOG) peptide 35-55 (Multiple Peptide System) in incomplete Freund's adjuvant and 8 mg/ml of Mycobacterium tuberculosis (strain H37Ra; Difco). Pertussis toxin (Sigma) (500 ng) was injected on the day of the immunization and again two days later. Body weight and clinical score (0=healthy; 1=limp tail; 2=ataxia and/or paresis of hindlimbs; 3=paralysis of hindlimbs and/or paresis of forelimbs; 4=tetraparalysis; 5=moribund or death) were recorded daily.
# EAE mice were treated once daily by subcutaneous (s.c.) injection of LQ (supplied by Teva Pharmaceutical Industries, Netanya, Israel) (thereafter referred as LQ-EAE). LQ was administered at different doses (from 1 to 25 mg/kg) starting the same day of immunization up to 26 days post immunization (d.p.i.). Sham treated EAE mice (thereafter referred as untreated-EAE) and healthy control mice (thereafter referred as HC) were used as controls. […]
# spinal cord of EAE mice = test: Histological evaluation of spinal cord of EAE mice; type: in vivo, C57BL/6 mice
# Protocol: At least 5 mice per group were transcardially perfused through the left cardiac ventricle with saline, plus EDTA 0.5 M for 5-10 min followed by fixation with cold 4% paraformaldehyde (PFA) (Sigma, St Louis, Mo.) in 0.1 M phosphate buffer (pH 7.4). Subsequently, spinal cords and brains were carefully dissected out and post-fixed in 4% PFA for 3-4 h and processed for paraffin embedding. The quantification of neurological damage was performed on 5 µm paraffin CNS sections obtained from HC, LQ-EAE mice, and untreated-EAE mice. Three different staining were used to detect inflammatory infiltrates (H&E), demyelination (Luxol fast blue) and axonal damage (Bielshowsky). Imunohistochemistry for CD3 (pan-T cell marker, Serotec Ltd, Oxford, UK), and BS-I isolectin B4 (biotinilated from Sigma, St Louis, Mo.) was performed to investigate T cells and macrophages within the inflammatory cellular infiltrates, respectively. […] Neuropathological findings were quantified on an average of 18-20 complete cross-sections of spinal cord per mouse taken at 8 different levels of the spinal cord. The number of perivascular inflammatory infiltrates were calculated and expressed as the numbers of inflammatory infiltrates per mm^2, demyelinated areas and axonal loss were expressed as percentage of damaged area per mm2. The number of T cells and macrophages lining within the subarachnoid space or infiltrating the CNS parenchyma was calculated and expressed as the number of cells per mm2. An Olympus microscope for the acquisitions of pictures was used. Statistical analysis was performed using the unpaired Student's t-test.
# [2] = system: striatal glutamatergic transmission; test: Whole-cell patch clamp of striatal neurons from EAE mice: glutamate-mediated sEPSCs; type: in vivo; settings: LQ-EAE mice 25 mg/kg, n=20; untreated-EAE 4.0±0.2, HC 2.7±0.2
# [3] = system: GABAergic transmission in control striatal neurons; test: Bath application on corticostriatal slices of wild type mice: sIPSCs (basal GABAergic transmission); type: cell-based
# rat model of ADHD = test: Rat model of ADHD; type: in vivo; settings: compared to control rats
# Protocol: Laqunimod is tested in a rat model of ADHD.
# DAT-CI mice = test: Mouse model of ADHD (DAT-CI mice); type: in vivo
# Description: DAT cocaine-insensitive (DAT-CI) mice have a triple point-mutation in the cocaine-binding site of the dopamine […] (DAT) gene. The behavior of DAT-CI mice mimics human ADHD behavior. As previously described, the sensitivity of CB1 receptors controlling GABA-mediated synaptic currents in the striatum of DAT-CI mice was completely lost. ([…] et al., 2011).
# [4] = system: human subjects diagnosed with ADHD; test: Human ADHD trial; type: in vivo; settings: compared to the control group
# Protocol: Laquinimod is administered to human subjects diagnosed with ADHD.
# cannabinoid CB1 receptor = cannabinoid CB1 receptor (Mus musculus, UniProt P47746); settings: HU210 1 μM
# cannabinoid CB1 receptor, sequence (P47746 whole entry): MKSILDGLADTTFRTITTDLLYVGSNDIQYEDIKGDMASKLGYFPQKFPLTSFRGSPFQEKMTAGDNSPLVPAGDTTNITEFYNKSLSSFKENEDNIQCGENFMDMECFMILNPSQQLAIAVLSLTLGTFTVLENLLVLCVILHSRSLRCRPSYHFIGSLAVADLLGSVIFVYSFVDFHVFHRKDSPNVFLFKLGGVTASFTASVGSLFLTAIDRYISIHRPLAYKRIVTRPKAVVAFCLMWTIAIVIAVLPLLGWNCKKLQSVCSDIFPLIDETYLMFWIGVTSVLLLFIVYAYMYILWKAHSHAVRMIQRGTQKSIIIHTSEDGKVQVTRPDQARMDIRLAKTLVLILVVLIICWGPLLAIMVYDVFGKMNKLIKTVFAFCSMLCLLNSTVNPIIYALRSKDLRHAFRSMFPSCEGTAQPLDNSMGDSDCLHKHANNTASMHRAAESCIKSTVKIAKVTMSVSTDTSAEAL
# Protocol: Recordings were performed between 25 and 35 dpi. Mice were killed by cervical dislocation under halothane anaesthesia, and corticostriatal coronal slices (200 μm) were prepared from fresh tissue blocks of the brain with the use of a vibratome (Centonze et al., 2007, 2009; Rossi et al., 2010a,b). A single slice was then transferred to a recording chamber and submerged in a continuously flowing artificial CSF (ACSF) (34° C., 2-3 ml/min) gassed with 95% O2-5% CO2. The composition of the control ACSF was (in mM): 126 NaCl, 2.5 KCl, 1.2 MgCl2, 1.2 NaH2PO4, 2.4 CaCl2, 11 Glucose, 25 NaHCO3. Recording pipettes were advanced towards individual striatal cells in the slice under positive pressure and visual control (WinVision 2000, Delta Sistemi, Italy) and, on contact, tight GΩ seals were made by applying negative pressure. The membrane patch was then ruptured by suction and membrane current and potential monitored using an Axopatch 1D patch clamp amplifier (Axon Instruments, Foster City, Calif., USA). Whole-cell access resistances measured in voltage clamp were in the range of 5-20 MΩ. Whole-cell patch clamp recordings were made with borosilicate glass pipettes (1.8 mm o.d.; 2-3 MΩ), in voltage-clamp mode, at the holding potential (HP) of −80 mV. […] Synaptic events were stored by using P-CLAMP (Axon Instruments) and analyzed off line on a personal computer with Mini Analysis 5.1 (Synaptosoft, Leonia, N.J., USA) software. […] Offline analysis was performed on spontaneous and miniature synaptic events recorded during fixed time epochs (3-5 min, 3-6 samplings), sampled every 5 or 10 minutes. […]
# For data presented as mean ±SE, n indicates the number of cells. One to six cells per animal were recorded. […] Multiple comparisons were analysed by one-way ANOVA followed by Tukey's HSD test. Comparisons between two groups were analysed by paired or unpaired Student's t-test. […]
# [5] = LQ-EAE vs control, dose dependent
# [6] = LQ 1 μM, 12 minutes, compared to pre-drug values, first mention
# [7] = LQ 1 μM bath application, control neurons
# [8] = LQ 1 μM, 12 minutes, control neurons, compared to pre-drug values, second mention
compound,measurement,setting,value
N#Cc1cc2[nH]c(=O)c(=O)[nH]c2cc1[N+](=O)[O-] [CNQX],blockade of sEPSCs,"[1]; recorded in the presence of LQ, n=5, CNQX 10 μM",fully blocked
"CCN(C(=O)c1c(O)c2c(Cl)cccc2n(C)c1=O)c1ccccc1 [LQ, N-ethyl-N-phenyl-1,2-dihydro-4-hydroxy-5-chloro-1-methyl-2-oxoquinoline-3-carboxamide]",effect on EAE clinical course,EAE mice,significantly suppresses EAE in a dose-dependent manner
same,Demyelination,spinal cord of EAE mice; [5],reduced
same,axonal loss,spinal cord of EAE mice; [5],reduced
same,number of T lymphocytes (CD3+) in cellular infiltrates,spinal cord of EAE mice; LQ-EAE vs untreated-EAE mice,diminished number
same,number of microglia/macrophages (Isolectin B4+) in cellular infiltrates,spinal cord of EAE mice; LQ-EAE vs untreated-EAE mice,diminished number
same,numbers of infiltrates within spinal cord sections,spinal cord of EAE mice; LQ-EAE vs untreated-EAE mice,reduction in numbers of infiltrates
same,frequency of sEPSCs,[2],3.4±0.4 Hz
same,amplitude of sIPSCs,[3]; LQ 1 μM bath application,failed to alter
same,frequency of sIPSCs,[3]; LQ 1 μM bath application,failed to alter
same,sIPSC decay time,[3]; [6],98±3%
same,sIPSC rise time,[3]; [6],101±2%
same,amplitude of sEPSCs,[1]; [7],failed to alter
same,frequency of sEPSCs,[1]; [7],failed to alter
same,sIPSC decay time,[1]; [8],101±2%
same,sIPSC rise time,[1]; [8],99±1%
same,sEPSC amplitude,"[1]; LQ 10-30 μM bath application, control neurons, n=10",reducing sEPSC amplitude
same,"frequency of sEPSCs, respect to pre-drug values","[1]; highest concentration of LQ, n=7",83±2.7%
same,result in rat model of ADHD,rat model of ADHD,positive results
same,sensitivity of CB1 receptors to CB1 receptor agonist HU210,DAT-CI mice; DAT-CI mice,restored sensitivity
same,locomotor activity,DAT-CI mice; DAT-CI mice compared to control mice,decreased locomotor activity
same,result in human ADHD subjects,[4],"alleviation of inattention, hyperactivity or impulsivity"
same,"sIPSC frequency during HU210, respect to pre-drug values","cannabinoid CB1 receptor; striatal neurons from LQ-EAE mice (25 mg/kg), n=10",75±3%
CCCCCCC(C)(C)c1cc(O)c2c(c1)OC(C)(C)[C@@H]1CC=C(CO)C[C@@H]21 [HU210],"sIPSC frequency during HU210, respect to pre-drug values","cannabinoid CB1 receptor; control slices, 10 min, n=8",76±3%
same,"sIPSC frequency during HU210, respect to pre-drug values","cannabinoid CB1 receptor; striatal neurons from untreated EAE mice, n=10",101±3%
